Measured values published in a melting point compilation (Tetko et al.; mined from patent text by program, amines drawn as free bases though some values may be those of a salt).

Row | melting point [°C] | Compound
1 | > 300 | O=C(O)c1cn(C2COC2)c2c(F)c(F)cc(F)c2c1=O
2 | 225 to 227 | Cc1cc(Nc2cc(-c3cccc(N4Cc5cc(C(C)(C)C)ccc5C4=O)c3CO)cn(C)c2=O)nn1C
3 | 226 to 227 | O=C(O)Cc1c(-c2ccccc2)c2cc3c(cc2oc1=O)C(=O)OC3
4 | 252 to 253 | O=C(O)C1Cc2c(n(Cc3ccccc3)c3ccccc23)CN1 (stereo not given)
5 | 164 to 166 | CC12CC(=O)C3C(CCC4C(Br)C(O)CCC43C)C1CCC2C(=O)CBr (stereo not given)
6 | 128 | CC1(C)CC(n2cncc2C(=O)OC2CCCCC2)c2ccccc2O1 (stereo not given)
7 | 253 to 255 | O=C(Nc1ccc(-n2nc(C(F)(F)F)cc2C(F)(F)F)cc1)c1cc2cc(F)ccc2[nH]1
8 | 89 to 95 | CCC(CC)(CC(=O)Nc1cccc(OCc2ccc3ccc(OCc4ccccc4)cc3n2)c1)C(=O)O
9 | 172 to 175 | O=[N+]([O-])c1cccc(-c2nc(-c3ccccc3)cc3cccnc23)c1
10 | 160 | CC(C)(C)NC(=O)c1ncccc1CC(=O)C1CCC(C(=O)O)CC1 (stereo not given)
11 | 226 to 227 | CC(C)(C)OC(=O)c1ncn2c1[C@@H]1CCCN1C(=O)c1sccc1-2
12 | 140 to 144 | O=c1[nH]c2cccnc2n1CCCN1CCC(C(O)(c2ccc(F)cc2)c2ccccn2)CC1 (stereo not given)
13 | 107 | CCCC(CCC)(CC(=O)O)CC(=O)O
14 | 154 to 155 | COc1ccc(S(=O)(=O)Nc2cccc3c2Nc2ccccc2CO3)cc1
15 | 228 to 230 | Clc1cccnc1-c1ccc2[nH]nc(Nc3cnccn3)c2c1
16 | 87 to 90 | Cc1ccc(S(=O)(=O)N2CCC[C@H]2C(=O)N[C@@H](Cc2ccc(OCCCN(C)Cc3ccccc3)cc2)C(=O)O)cc1
17 | 164 to 166 | CCOC(=O)c1cn(C2CC2)c2nc(N3CCC(NC)C3)c(F)cc2c1=O (stereo not given)
18 | 237 to 238 | CC(=O)OCN=C(O)c1cc(C(O)=NCOC(C)=O)c(C(=O)O)cc1C(=O)O
19 | 132 to 135 | CC1=C(c2cccc(Cl)c2)n2ncc(C#N)c2N(C(=O)CCl)C1
20 | 230 to 232 | CC(=O)c1ccc2c(c1)CCc1ccc(C(=O)O)cc1S2
21 | 144 to 145 | CC(=O)c1cc2c(cc1NC(=O)c1coc3ccccc13)OCO2
22 | 107 to 109 | C=CCN1C(=O)CCc2cc(Sc3cccc([C@@]4(O)CCO[C@@H](C)C4)c3)ccc21
23 | 193 to 194 | Nc1ccc(CN2CCN(Cc3ccc(N)cc3)C(=O)C2=O)cc1

Row | melting point [°C] | Compound
24 | 94 to 95 | COC(=O)C1=Cc2cc(Br)ccc2SCC1
25 | 230 to 231 | CNC(=O)c1cccc(NC(=O)Cc2c(C)ccc3ccccc23)c1
26 | 129 to 130 | O=C1CCN(c2ccc(CC3SC(=O)NC3=O)cc2F)CC1 (stereo not given)
27 | 178 to 180 | Cc1ccc(-c2ccc3c(c2)C=C(C(=O)Nc2ccc(CN4CCSCC4)cc2)CC3)cc1
28 | 162 to 165 | CCOc1cccc(-c2nn(C(C)c3oc4ccccc4c(=O)c3-c3cccc(F)c3)c3ncnc(N)c23)c1 (stereo not given)
29 | 111 to 113 | CC(=O)C=Cc1ccc(CCNS(=O)(=O)c2ccc(Cl)cc2)cc1
30 | 81 to 85 | CC(CCNc1cccc(-c2ccnc3c(C(=O)c4cccs4)cnn23)c1)CC(C)(C)C (stereo not given)
31 | 212 to 213 | CCn1c(C)c(C(=O)c2nccnc2C(=O)O)c2ccccc21
32 | 114 to 115 | N#Cc1[nH]ccc1-c1ccc(Cl)cc1
33 | 120 to 122 | Clc1ccc(C=Cc2nc(CNc3ccc(CCCCn4ccnn4)cc3)co2)cc1
34 | 168 to 169 | O=C1NC(=O)C(S(=O)(=O)c2ccc3ccccc3n2)S1 (stereo not given)
35 | 219 to 222 | CNc1nc(-c2ccc(F)cc2)n(-c2ccc(SC)cc2)c(=O)c1C#N
36 | 254 to 256 | CC(C)(O)Cn1c(CO)nc2c(N)nc3cc(-c4ccc(Cl)c(Cl)c4)cnc3c21
37 | 84 to 85 | N#Cc1cccc(C(=O)c2ccccc2)c1
38 | 184 to 189 | CC(C)(C)NC(=O)N1CCn2c(Br)c(-c3cccc(F)c3)c(C(N)=O)c2C1
39 | 237 to 239 | C[C@@H]1S[C@@H](C(=O)Nc2ccc(Cn3oc(=O)[nH]c3=O)cc2)Cc2cc3c(cc2C1=O)OCO3
40 | 60 to 63 | CCCCCCOc1cc(-n2c(=O)cc(C(F)(F)F)n(C)c2=O)c(F)cc1Cl
41 | 104 to 106 | CCOC(=O)c1c(CN(CC)CC)nc2sc3c(c2c1-c1ccc(OC)c(OC)c1)CCN(C(=S)Nc1ccccc1)C3
42 | 119 to 121 | c1ccc2c(c1)C1(CO1)c1ccccc1C21CO1 (stereo not given)
43 | 73 to 78 | Cc1noc(NS(=O)(=O)c2ccc(NCC(=O)O)cc2-c2ccc(CC(C)C)cc2)c1C
44 | 93 to 95 | Cn1c([N+](=O)[O-])cnc1C1=NO[C@H]2CCCCC[C@@H]12 (relative stereo)
45 | 95.4 | CC(=O)Nc1ccc2ccccc2c1-c1c(P(=O)(c2ccccc2)c2ccccc2)ccc2ccccc12
46 | 181 to 185 | NS(=O)(=O)c1cc(Cl)c(Cl)cc1OC(F)(F)F

Row | melting point [°C] | Compound
47 | > 260 | C[C@]12CCC(=O)N[C@@H]1CCc1cc(Sc3cccc4cccnc34)ccc12
48 | 170 | CC1(C)OC(C=Cc2ccc(C#N)cc2)=CC1=O
49 | 146 to 148 | CCOc1nc2ccccc2nc1NC(=O)N1CCN(c2cc(F)cc(F)c2)CC1
50 | 86 to 88 | CCOC(=O)N1CCC(c2ccc(N3CC(COC)OC3=O)cc2)CC1 (racemic)
51 | > 300 | O=S(=O)(O)c1ccc(Nc2ncnc3ccc(Cl)cc23)cc1
52 | 235 to 238 | COc1ccc(-c2cnn3c(N)c(-c4ccc(F)c(Cl)c4)c(C)nc23)cc1OC
53 | 81 | CCOC(=O)c1ccc2[nH]cc(CCCI)c2c1
54 | 142 to 144 | CCCc1nc(C(C)(C)O)c(C(=O)OC2OC(=O)c3ccccc32)n1Cc1ccc(-c2ccccc2C(=O)O)cc1 (stereo not given)
55 | 193 to 195 | O=C(NCc1ccc(Cl)cc1)c1cnc2sc(CN3CCOCC3)cc2c1O
56 | 160 to 161 | CCCc1nc2c(N)nc3ccccc3c2n1CCOCCCS(=O)(=O)c1ccccc1
57 | 127 to 128 | O=C(O)CCc1cn(Cc2ccc(OCc3cccs3)cc2)cc1-c1ccccc1
58 | 91.5 to 93.5 | CC1(C)Oc2c(ccc(Cl)c2N)C1=O
59 | 97 to 101 | Cc1ccc(C2CCC(=NO)c3ccccc32)cc1 (stereo not given)
60 | 86 | CCCCC[C@H]1CC[C@H](CCCCc2ccc(O)cc2)CC1
61 | 179 | O=c1oc(C(Cl)Cl)nc2c(C(F)(F)F)cccc12
62 | 147 to 150 | Nc1nn(Cc2ccccc2)c2nc(N3CCOCC3)cc(-c3ccccc3)c12
63 | 163 to 164 | O=[N+]([O-])c1ccc(C2OCc3cc(Br)ccc3O2)cc1 (stereo not given)
64 | 104 to 105 | CCCc1sc(-c2ccccc2)nc1OC(=O)Nc1ccccc1
65 | 144 to 150 | CN1CCN(C(c2ccc(Cl)cc2)c2ccccc2C(=O)O)CC1 (stereo not given)
66 | 202 to 204 | CC(C#N)=C1CCN(c2ccc(N3C[C@H](CNC(=O)C(Cl)Cl)OC3=O)cc2F)CC1
67 | 102 to 108 | OCC1OC(n2cnc3c(NCCCC(c4ccccc4)c4ccccc4)ncnc32)C(O)C1O (stereo not given)
68 | 203 to 205 | CC1(C)CCn2c(nc(-c3ccncn3)cc2=O)N1CC(=O)c1ccccc1
69 | 170 to 172 | CC(=O)C1CCC2C3=C(C(=O)CC12C)C1(C)CCC(O)CC1CC3 (stereo not given)

Row | melting point [°C] | Compound
70 | 128 to 129 | CON(C)c1nc(C)cc(O)n1
71 | 83 to 85 | CC(C)(C)OC(=O)N[C@@H](Cc1ccccc1)[C@@H](O)[C@@H](O)C1CC1
72 | 145 to 147 | CC(=O)N1CCc2cc(C(=O)CCCN3CCC(c4noc5cc(F)ccc45)CC3)sc2C1
73 | 145 to 146 | COC(=O)c1ccc2occ(-c3ccc(S(C)=O)cc3)c2c1 (stereo not given)
74 | 112 to 115 | O=C(Nc1ccccc1F)c1ccccn1
75 | 190 to 192 | CCc1nc(OC)c(NC(=O)N2CCN(c3cc(OC)c(OC)c(OC)c3)CC2)cc1C(=O)Nc1cc(CO)cc(Nc2c3ccccc3nc3ccccc23)c1
76 | 178 | Oc1ccc(Cc2noc3cc(O)ccc23)cc1
77 | 240 to 243 | COc1ccc(C(=O)Nc2ccc(F)c(F)c2)cc1NCc1cccc(C(=O)O)c1
78 | 90 | COc1c(OC2CCC3(CC2)OCC(C)(C)CO3)ccnc1C
79 | 242 | CCn1cc(C(=O)O)c(=O)c2cc(F)c(N3CCC(NC)C3)nc21 (stereo not given)
80 | 173 to 175 | CCOC(=O)CCCOc1ccc(C(=O)Nc2ccccc2Sc2ccccc2-c2nnn[nH]2)cc1
81 | 177 | O=C(NCCCCN1CCC(c2c[nH]c3ccccc23)CC1)c1ccc(-c2ccc(C(F)(F)F)cc2)c(CO)c1
82 | 176 to 177 | Clc1cc2nnnn2c2cnccc12
83 | 132 | CC(C)(C)OC(=O)NN1CCN([Si](C)(C)C)C1=O
84 | > 300 | COc1ccc2ncc(S(=O)(=O)N(C)C)c(O)c2c1
85 | 143 to 145 | CC(C)CCS(=O)(=O)NC(=O)CCc1cc(OC(C)C)nn1Cc1ccc(Cl)cc1Cl
86 | 81 to 83 | O=C1C=C2C=CC=C2O1
87 | 235 | CCOC(=O)Nc1nc2cc(-c3cccnc3)cc(-c3ccccn3)c2s1
88 | 166 to 167 | CC(C)(C)C(NC(=O)c1ccc(Cl)cc1)NS(=O)(=O)Nc1cccnc1 (stereo not given)
89 | 110 to 113 | CCNc1cccc(NC(=O)COC(C)=O)c1C#N

Row | Compound | melting point [°C]
90 | Cc1ccccc1NC(=O)NC1N=C(c2ccccc2F)c2ccccc2N(CC(=O)N2CC3CCC(CC3)C2)C1=O (racemic) | 167 to 172
91 | Clc1ccc2c(c1)C(c1ccco1)=NCC1CSCCN21 (stereo not given) | 138 to 140
92 | Cc1ccccc1-n1c(CC(O)c2ccccc2)nc2ccccc2c1=O (stereo not given) | 119
93 | COc1ccc(C2(c3ccc(OC)cc3)CCN(CC[C@H]3CN(C)[C@@H]4Cc5c[nH]c6cccc(c56)[C@@]4(OC)C3)CC2)cc1 | 129 to 136
94 | Cc1c(O)cc(O)c(C)c1C(=O)OCC(Cl)(Cl)Cl | 132 to 133
95 | CCc1nnc(-c2ccc(-c3ccc(C(=O)N4CCCc5cc6c(cc54)C4(CCN(C)CC4)CO6)cc3)c(C)c2)o1 | 241 to 243
